Assay results reported in US20180251431A1 (VERTEX PHARMACEUTICALS INCORPORATED, priority 2016, published 2018).
Entries after “also recorded” stand apart in the source; their conditions may differ. Like-named read-outs stand apart in the source and are kept apart here.

Assays:
[1] = Blood exposure (AUC) in the 28-day oral dosing study in mice; assay type: in vivo; details: ABCD1 knockout (KO), mouse, whole blood (dried blood spots), read-out: Blood area under the concentration time-curve (AUC)
ABCD1 knockout (KO) mice = experiment: Reduction of blood C26:0 LPC in vivo in ABCD1 knockout mice (DBS, LC-MS/MS); parameters: species or system mouse
Protocol: Bioanalysis of LPC in Whole Blood and Brain Tissue:
A LC-MS/MS method of analyzing Lysophosphatidylcholine (LPC) in whole blood (dried blood spot card, DBS) and brain tissue samples was developed for measuring the abundance of saturated C16, C18, C20, C22, C24 and C26 LPC in DBS and brain samples. Whole blood was collected with Whatman DMPK-C DBS card at an approximate volume of 20 μL at each time point. Brain tissue was collected at the end point of the study. Samples were prepared and LC-MS/MS analysis was performed as described below.
Sample Preparation for LPC Bioanalysis:
For DBS bioanalysis, the DBS card was punched at 3 mm in diameter using a semi-automated DBS card puncher. To each punched spot 200 μL of pure methanol was added. The vial was vortexed at low speed for 20 minutes and centrifuged at 4000 rpm for 20 minutes. The clear supernatant was injected onto LC-MS/MS for analysis. For brain tissue bioanalysis, brain tissue was collected in a tared homogenization tube pre-filled with metal bead and weighted. To each sample vial two parts weight of methanol was added. The sample was homogenized using Precellys-24 at 5000 rpm for 20 seconds with one cycle. A 100 mg aliquot of homogenate was used for analysis. To each sample vial 400 μL of pure methanol was added. The vial was vortexed at low speed for 20 minutes and centrifuged at 4000 rpm for 20 minutes. The clear supernatant was injected onto LC-MS/MS for analysis.
The supernatant obtained from each sample was injected into a LC-MS/MS system (Agilent Technologies, Santa Clara, Calif. and Applied Biosystems, Framingham, Mass.) for analysis. All six LPC components (C16:0, C18:0, C20:0, C22:0, C24:0 and C26:0) were chromatographically separated using a Series 1290 binary pump and a Phenomenex (Torrance, Calif.) Kinetex C18 analytical column (2.1×100 mm, 5 μm particle diameter) with a 10-min gradient. A 5% acetonitrile in water solution was used as the aqueous phase and a 40% acetonitrile/60% methanol solution in 1% 2 Mol ammonium acetate was used as the organic mobile phase for achieving the chromatographic analysis. LPCs were detected by an AB Sciex API-6500 triple quadrupole MS with electrospray ionization in the mode of multiple reaction monitoring. Ions of Q1 were monitored at m/z of 496.6, 524.6, 552.6, 580.6, 608.6 and 636.6 for LPC 16:0, LPC 18:0, LPC 20:0, LPC 22:0, LPC 24:0 and LPC 26:0, respectively. A common Q3 ion m/z of 184.2 was used for all LPC analyses. C16:0 LPC levels were expressed as a concentration. All other LPC levels were expressed relative to C16. A one-way ANOVA with Dunnett's multiple comparisons test was performed to assess differences in LPC levels among the different groups. A value of P≤0.05 was considered statistically significant. All statistical analyses were conducted using Prism Software version 7.01 (GraphPad, La Jolla, Calif.).
Dosing in ABCD1 Knockout Mice:
To determine the effect of Compound 87 on blood VLCFA levels, Compound 87 was administered to ABCD1 knockout (KO) mice, a model that reproduces the C26:0 VLCFA accumulation observed in ALD patients. Specifically, Compound 87 was administered orally (PO) QD at 1, 8, or 16 mg/kg to ABCD1 KO mice (n=5 per group). DBS were collected on day 0 (pre-dosing), and daily through 14 days of dosing. DBS cards were stored at 4° C. in sealed ziplock bags with desiccant until they could be analyzed for LPC using the sample preparation and LC-MS/MS as described above. The vehicle used was 2% D-α-Tocopherol polyethylene glycol 1000 succinate (TPGS) and Compound 87 doses were prepared in 2% TPGS. […] Interperitoneal dosing, at 2 or 20 mg/kg (data not shown) or oral (PO) dosing at 1, 8, or 16 mg/kg (FIG. 2A) yielded similar results. A dose response was observed between 1 and 8 mg/kg. […] Error bars indicate standard deviation.
Daily Oral Dosing in ABCD1 Knockout Mice: […]

- AUC ([1]; 4 mg/kg PO QD): 1950 ng·h/mL
- AUC ([1]; 8 mg/kg PO QD): 3490 ng·h/mL
Compound: O=C(Nc1ccn(-c2ccnc(F)c2)n1)C1(c2ccccc2F)CC1 [Compound 87, 1-(2-fluorophenyl)-N-[1-(2-fluoro-4-pyridyl)pyrazol-3-yl]cyclopropanecarboxamide]
- Plasma C26:0 LPC levels (ABCD1 knockout (KO) mice; ABCD1 KO mice, 1, 8, or 16 mg/kg PO QD for 14 days): dropped over the first 8 days before plateauing at near WT baseline levels
- reduction in C24:0 and C26:0 LPC levels compared to vehicle controls (ABCD1 knockout (KO) mice; ABCD1 KO mice, blood (DBS), 0.5 mg/kg PO QD for 28 days): 50%
- reduction in C26:0 LPC levels (dose response plateau) (ABCD1 knockout (KO) mice; ABCD1 KO mice, blood (DBS), plateau between the 4 mg/kg and 8 mg/kg doses, PO QD 28 days): approximately 75%
- time for LPC levels to return to baseline levels after compound discontinuation (ABCD1 knockout (KO) mice; adult female ABCD1 KO mice, 1 or 8 mg/kg PO QD for 14 days, then discontinued): approximately 1 week
- C26:0 LPC reducing effect after discontinuation of treatment (ABCD1 knockout (KO) mice; adult female ABCD1 KO mice, 1 or 8 mg/kg PO QD for 14 days, then discontinued, blood LPC followed another 2 weeks): reversible; also recorded: to about baseline level
- C26:0 LPC/C16:0 LPC levels in the blood (ABCD1 knockout (KO) mice; female ABCD1 KO mice, 1 and 10 mg/kg PO QD, 3 months of dosing): maintained at near WT levels
- reduction in C26:0 LPC levels in vivo (ABCD1 knockout (KO) mice; female ABCD1 KO mice, blood (DBS), 1 mg/kg PO QD for 3 months): ~65%
- reduction in C26:0 LPC levels in vivo (ABCD1 knockout (KO) mice; female ABCD1 KO mice, blood (DBS), 10 mg/kg PO QD for 3 months): ~70%
